Measurements: ChEMBL document CHEMBL3885881, “DrugMatrix”

Species: Rattus norvegicus
Test: DrugMatrix - Regimen: Daily Repeat
Assay type: toxicity, organism-based, Sprague-Dawley
Parameters: regimen Daily Repeat, gender Male, age 6-8 weeks
Conditions: in vivo, po, route oral GAVAGE, […]; for ABSOLUTE BASOPHIL / BASOPHIL / ABSOLUTE EOSINOPHIL / ABSOLUTE LYMPHOCYTE / ABSOLUTE MONOCYTE / ABSOLUTE SEGMENTED NEUTROPHIL / EOSINOPHIL / ERYTHROCYTE COUNT / HEMATOCRIT / HEMOGLOBIN / LEUKOCYTE COUNT / LYMPHOCYTE / MEAN CORPUSCULAR HEMOGLOBIN / MEAN CORPUSCULAR HEMOGLOBIN CONCENTRATION / MEAN CORPUSCULAR VOLUME / MONOCYTE / NEUTROPHIL / NUCLEATED RED BLOOD CELLS / PLATELET COUNT: tissue Blood; for ALANINE AMINOTRANSFERASE / ALBUMIN / ALKALINE PHOSPHATASE / ASPARTATE AMINOTRANSFERASE / BLOOD UREA NITROGEN / CARBON DIOXIDE / CHLORIDE / CHOLESTEROL / CREATINE PHOSPHOKINASE / CREATININE / GLUCOSE / LACTATE DEHYDROGENASE / LIPASE / PHOSPHORUS / SODIUM / TOTAL BILIRUBIN / TOTAL PROTEIN / URIC ACID: tissue Plasma
[1] = 0 mg/kg, 72 h, dose level Control, time 3 day
[2] = 0 mg/kg, 120 h, dose level Control, time 5 day
[3] = 12 mg/kg, 72 h, dose level Low, time 3 day
[4] = 12 mg/kg, 120 h, dose level Low, time 5 day
[5] = 24 mg/kg, 72 h, dose level M1, time 3 day
[6] = 24 mg/kg, 120 h, dose level M1, time 5 day
[7] = 47 mg/kg, 72 h, dose level High, time 3 day
[8] = 47 mg/kg, 120 h, dose level High, time 5 day

Nc1nc2nc[nH]c2c(=S)[nH]1 [THIOGUANINE]
ABSOLUTE BASOPHIL [1]: 0 CELLS/uL
BASOPHIL [1]: 0%
ABSOLUTE BASOPHIL [2]: 0 CELLS/uL
BASOPHIL [2]: 0%
ABSOLUTE BASOPHIL [3]: 0 CELLS/uL
ABSOLUTE EOSINOPHIL [3]: 0 CELLS/uL
ABSOLUTE LYMPHOCYTE [3]: 1995.33 CELLS/uL
ABSOLUTE MONOCYTE [3]: 24.33 CELLS/uL
ABSOLUTE SEGMENTED NEUTROPHIL [3]: 1147 CELLS/uL
BASOPHIL [3]: 0%
EOSINOPHIL [3]: 0%
ERYTHROCYTE COUNT [3]: 5.75 x10E6/uL
HEMATOCRIT [3]: 36.93%
HEMOGLOBIN [3]: 14.27 G/DL
LEUKOCYTE COUNT [3]: 3.17 x10E3/uL
LYMPHOCYTE [3]: 50.67%
MEAN CORPUSCULAR HEMOGLOBIN [3]: 24.87 pg
MEAN CORPUSCULAR HEMOGLOBIN CONCENTRATION [3]: 38.6 G/DL
MEAN CORPUSCULAR VOLUME [3]: 64.37 fL
MONOCYTE [3]: 0.67%
NEUTROPHIL [3]: 48.67%
NUCLEATED RED BLOOD CELLS [3]: 0 /100WBC
PLATELET COUNT [3]: 1202 x10E3/uL
ALANINE AMINOTRANSFERASE [3]: 56.33 u/L
ALBUMIN [3]: 4.67 G/DL
ALKALINE PHOSPHATASE [3]: 631.67 u/L
ASPARTATE AMINOTRANSFERASE [3]: 116 u/L
BLOOD UREA NITROGEN [3]: 14.67 mg/dL
CARBON DIOXIDE [3]: 23 mmol/L
CHLORIDE [3]: 98.67 MEQ/L
CHOLESTEROL [3]: 58 mg/dL
CREATINE PHOSPHOKINASE [3]: 539.33 u/L
CREATININE [3]: 0.12 mg/dL
GLUCOSE [3]: 318 mg/dL
LACTATE DEHYDROGENASE [3]: 172 u/L
LIPASE [3]: 11.33 u/L
PHOSPHORUS [3]: 9.8 mg/dL
SODIUM [3]: 141.63 MEQ/L
TOTAL BILIRUBIN [3]: 0.17 mg/dL
TOTAL PROTEIN [3]: 6.73 G/DL
URIC ACID [3]: 1.43 mg/dL
ABSOLUTE BASOPHIL [4]: 0 CELLS/uL
ABSOLUTE EOSINOPHIL [4]: 52 CELLS/uL
ABSOLUTE LYMPHOCYTE [4]: 778 CELLS/uL
ABSOLUTE MONOCYTE [4]: 212 CELLS/uL
ABSOLUTE SEGMENTED NEUTROPHIL [4]: 8758 CELLS/uL
BASOPHIL [4]: 0%
EOSINOPHIL [4]: 0.67%
ERYTHROCYTE COUNT [4]: 4.29 x10E6/uL
HEMATOCRIT [4]: 27.5%
HEMOGLOBIN [4]: 11 G/DL
LEUKOCYTE COUNT [4]: 9.8 x10E3/uL
LYMPHOCYTE [4]: 8.33%
MEAN CORPUSCULAR HEMOGLOBIN [4]: 25.97 pg
MEAN CORPUSCULAR HEMOGLOBIN CONCENTRATION [4]: 40.5 G/DL
MEAN CORPUSCULAR VOLUME [4]: 64.23 fL
MONOCYTE [4]: 2%
NEUTROPHIL [4]: 89%
NUCLEATED RED BLOOD CELLS [4]: 0 /100WBC
PLATELET COUNT [4]: 1171.33 x10E3/uL
ALANINE AMINOTRANSFERASE [4]: 335.67 u/L
ALBUMIN [4]: 4.13 G/DL
ALKALINE PHOSPHATASE [4]: 261.67 u/L
ASPARTATE AMINOTRANSFERASE [4]: 551.67 u/L
BLOOD UREA NITROGEN [4]: 16.67 mg/dL
CARBON DIOXIDE [4]: 17.67 mmol/L
CHLORIDE [4]: 101 MEQ/L
CHOLESTEROL [4]: 60.33 mg/dL
CREATINE PHOSPHOKINASE [4]: 1296 u/L
CREATININE [4]: 0.11 mg/dL
GLUCOSE [4]: 204.67 mg/dL
LACTATE DEHYDROGENASE [4]: 625 u/L
LIPASE [4]: 9.67 u/L
PHOSPHORUS [4]: 13.37 mg/dL
SODIUM [4]: 141.53 MEQ/L
TOTAL BILIRUBIN [4]: 0.23 mg/dL
TOTAL PROTEIN [4]: 6.1 G/DL
URIC ACID [4]: 2.83 mg/dL
ABSOLUTE BASOPHIL [5]: 0 CELLS/uL
ABSOLUTE EOSINOPHIL [5]: 0 CELLS/uL
ABSOLUTE MONOCYTE [5]: 0 CELLS/uL
BASOPHIL [5]: 0%
EOSINOPHIL [5]: 0%
MONOCYTE [5]: 0%
ABSOLUTE BASOPHIL [6]: 0 CELLS/uL
ABSOLUTE EOSINOPHIL [6]: 46.33 CELLS/uL
ABSOLUTE LYMPHOCYTE [6]: 7006.33 CELLS/uL
ABSOLUTE MONOCYTE [6]: 30 CELLS/uL
ABSOLUTE SEGMENTED NEUTROPHIL [6]: 550.67 CELLS/uL
BASOPHIL [6]: 0%
EOSINOPHIL [6]: 0.67%
ERYTHROCYTE COUNT [6]: 5.49 x10E6/uL
HEMATOCRIT [6]: 33.33%
HEMOGLOBIN [6]: 13.27 G/DL
LEUKOCYTE COUNT [6]: 7.63 x10E3/uL
LYMPHOCYTE [6]: 91.67%
MEAN CORPUSCULAR HEMOGLOBIN [6]: 24.17 pg
MEAN CORPUSCULAR HEMOGLOBIN CONCENTRATION [6]: 39.8 G/DL
MEAN CORPUSCULAR VOLUME [6]: 60.83 fL
MONOCYTE [6]: 0.33%
NEUTROPHIL [6]: 7.33%
NUCLEATED RED BLOOD CELLS [6]: 0 /100WBC
PLATELET COUNT [6]: 1721.33 x10E3/uL
ALANINE AMINOTRANSFERASE [6]: 38.67 u/L
ALBUMIN [6]: 4.13 G/DL
ALKALINE PHOSPHATASE [6]: 266.67 u/L
ASPARTATE AMINOTRANSFERASE [6]: 89.33 u/L
BLOOD UREA NITROGEN [6]: 11 mg/dL
CARBON DIOXIDE [6]: 25 mmol/L
CHLORIDE [6]: 104.67 MEQ/L
CHOLESTEROL [6]: 66 mg/dL
CREATINE PHOSPHOKINASE [6]: 417.33 u/L
CREATININE [6]: 0.23 mg/dL
GLUCOSE [6]: 127.67 mg/dL
LACTATE DEHYDROGENASE [6]: 349 u/L
LIPASE [6]: 9.67 u/L
PHOSPHORUS [6]: 10.33 mg/dL
SODIUM [6]: 151.33 MEQ/L
TOTAL BILIRUBIN [6]: 0.33 mg/dL
TOTAL PROTEIN [6]: 5.97 G/DL
URIC ACID [6]: 1.17 mg/dL
ABSOLUTE BASOPHIL [7]: 0 CELLS/uL
ABSOLUTE EOSINOPHIL [7]: 53.33 CELLS/uL
ABSOLUTE LYMPHOCYTE [7]: 4257 CELLS/uL
ABSOLUTE MONOCYTE [7]: 26.67 CELLS/uL
ABSOLUTE SEGMENTED NEUTROPHIL [7]: 4229.67 CELLS/uL
BASOPHIL [7]: 0%
EOSINOPHIL [7]: 0.67%
ERYTHROCYTE COUNT [7]: 7.05 x10E6/uL
HEMATOCRIT [7]: 43.87%
HEMOGLOBIN [7]: 17.33 G/DL
LEUKOCYTE COUNT [7]: 8.57 x10E3/uL
LYMPHOCYTE [7]: 50%
MEAN CORPUSCULAR HEMOGLOBIN [7]: 24.57 pg
MEAN CORPUSCULAR HEMOGLOBIN CONCENTRATION [7]: 39.5 G/DL
MEAN CORPUSCULAR VOLUME [7]: 62.23 fL
MONOCYTE [7]: 0.33%
NEUTROPHIL [7]: 49%
NUCLEATED RED BLOOD CELLS [7]: 0 /100WBC
PLATELET COUNT [7]: 1024.33 x10E3/uL
ALANINE AMINOTRANSFERASE [7]: 35.67 u/L
ALBUMIN [7]: 3.03 G/DL
ALKALINE PHOSPHATASE [7]: 125 u/L
ASPARTATE AMINOTRANSFERASE [7]: 152.67 u/L
BLOOD UREA NITROGEN [7]: 21 mg/dL
CARBON DIOXIDE [7]: 16 mmol/L
CHLORIDE [7]: 97 MEQ/L
CHOLESTEROL [7]: 46.67 mg/dL
CREATINE PHOSPHOKINASE [7]: 4333 u/L
CREATININE [7]: 0.17 mg/dL
GLUCOSE [7]: 263.33 mg/dL
LACTATE DEHYDROGENASE [7]: 399 u/L
LIPASE [7]: 23.33 u/L
PHOSPHORUS [7]: 14.77 mg/dL
SODIUM [7]: 139.73 MEQ/L
TOTAL BILIRUBIN [7]: 0.17 mg/dL
TOTAL PROTEIN [7]: 4.33 G/DL
URIC ACID [7]: 3.1 mg/dL
ABSOLUTE BASOPHIL [8]: 0 CELLS/uL
ABSOLUTE EOSINOPHIL [8]: 0 CELLS/uL
ABSOLUTE LYMPHOCYTE [8]: 1200 CELLS/uL
ABSOLUTE MONOCYTE [8]: 72 CELLS/uL
ABSOLUTE SEGMENTED NEUTROPHIL [8]: 1128 CELLS/uL
BASOPHIL [8]: 0%
EOSINOPHIL [8]: 0%
ERYTHROCYTE COUNT [8]: 6.48 x10E6/uL
HEMATOCRIT [8]: 41.1%
HEMOGLOBIN [8]: 15.9 G/DL
LEUKOCYTE COUNT [8]: 2.4 x10E3/uL
LYMPHOCYTE [8]: 50%
MEAN CORPUSCULAR HEMOGLOBIN [8]: 24.5 pg
MEAN CORPUSCULAR HEMOGLOBIN CONCENTRATION [8]: 38.7 G/DL
MEAN CORPUSCULAR VOLUME [8]: 63.5 fL
MONOCYTE [8]: 3%
NEUTROPHIL [8]: 47%
NUCLEATED RED BLOOD CELLS [8]: 0 /100WBC
PLATELET COUNT [8]: 877 x10E3/uL
ALANINE AMINOTRANSFERASE [8]: 127 u/L
ALBUMIN [8]: 3.5 G/DL
ALKALINE PHOSPHATASE [8]: 205 u/L
ASPARTATE AMINOTRANSFERASE [8]: 290 u/L
BLOOD UREA NITROGEN [8]: 35 mg/dL
CARBON DIOXIDE [8]: 25 mmol/L
CHLORIDE [8]: 100 MEQ/L
CHOLESTEROL [8]: 56 mg/dL
CREATINE PHOSPHOKINASE [8]: 284 u/L
CREATININE [8]: 0.1 mg/dL
GLUCOSE [8]: 211 mg/dL
LACTATE DEHYDROGENASE [8]: 156 u/L
LIPASE [8]: 6 u/L
PHOSPHORUS [8]: 9.3 mg/dL
SODIUM [8]: 141.5 MEQ/L
TOTAL BILIRUBIN [8]: 0.2 mg/dL
TOTAL PROTEIN [8]: 6.1 G/DL
URIC ACID [8]: 1.5 mg/dL
